Data taken from patent US9458203B2, “Integrin-blocking polypeptides and uses thereof” (priority 2011, dated 2016).
Read-outs that look alike come from different tables or passages of the source. Ends that are not written are not given here.

Legend:
[1] = system: human prostate cancer DU-145; type: in vivo, nude mice; conditions: mouse, in vivo
Experimental: (§2) Taking a certain amount of vigorously growing tumor tissue, grinding the tumor tissue under sterile conditions and preparing cell suspension at the concentration of 1×10^7 cells/ml; then hypodermicaly inoculating 0.1 ml of the cell suspension into the right axillary region of nude mice. Keeping measuring the diameter of the transplanted tumor with a vernier caliper, and randomly dividing the mice into groups when the volume of the tumor reached 100-200 mm^3. […] Measuring the tumor diameter once every other day and recording the body weight of mice simultaneously. Intravenously injecting polypeptides to mice from test groups while administering equal quantity of physiological saline to mice from the negative control group. The total medication period was 14 days. Avastin was adopted to set up a positive control group; it was administered through the tail vein once every three days while all other drugs were administered through the tail vein once a day. Leaving mice for a one-week rest after 14 days' medication, then (21 days after medication) killing the mice, surgically dissecting the tumors and measuring the weight of tumors. The tumor volume (TV) was calculated in accordance with the following formula: TV=½×a×b^2

[2] = system: human bladder cancer HT1376; experiment: heterotransplanted human bladder cancer HT1376 in nude mice; type: in vivo; conditions: for final weight: daily, tail vein injection
Excerpt: (§1) The total medication period was 14 days.

[3] = type: in vivo, nude mice; conditions: mouse, in vivo
Excerpt: as §1

[4] = system: human testicular cancer 5637; type: in vivo, nude mice; conditions: mouse, in vivo
Excerpt: as §1

[5] = system: human esophageal cancer Ec109; type: in vivo, nude mice; conditions: mouse, in vivo
Excerpt: as §1

sarcoma HT-1080 = type: in vivo, nude mice; conditions: mouse, in vivo
Excerpt: as §1

[6] = system: human gastric cancer MGC-803; experiment: heterotransplanted human gastric cancer MGC-803 in nude mice; conditions: for final weight: tail vein daily
Excerpt: (§3) Keeping measuring the diameter of the transplanted tumor with a vernier caliper, and randomly dividing the mice into groups when the volume of the tumor reached 100-200 mm^3. Observing the dynamic effect of integrin-blocking polypeptides on inhibiting the growth of the tumor by means of documenting the change of tumor diameters. Measuring the tumor diameter once every other day and recording the body weight of mice simultaneously. Intravenously injecting polypeptides to mice from test groups while administering equal quantity of physiological saline to mice from the negative control group. The total medication period was 14 days. Avastin was adopted to set up a positive control group; it was administered through the tail vein once every three days while all other drugs were administered through the tail vein once a day. Leaving mice for a one-week rest after 14 days' medication, then (21 days after medication) killing the mice, surgically dissecting the tumors and measuring the weight of tumors. The tumor volume (TV) was calculated in accordance with the following formula: TV=½×a×b^2

[7] = system: human breast cancer MDA-MB-231; experiment: heterotransplanted human breast cancer MDA-MB-231 in nude mice; conditions: for final weight: tail vein once a day, 14 days
Experimental: (§4) Taking a certain amount of vigorously growing tumor tissue, grinding the tumor tissue under sterile conditions and preparing cell suspension at the concentration of 1×10^7 cells/ml; then hypodermicaly inoculating 0.1 ml of the cell suspension into the right axillary region of nude mice. Keeping measuring the diameter of the transplanted tumor with a vernier caliper, and randomly dividing the mice into groups when the volume of the tumor reached 100-200 mm^3. Observing the dynamic effect of integrin-blocking polypeptides on inhibiting the growth of the tumor by means of documenting the change of tumor diameters. Measuring the tumor diameter once every other day and recording the body weight of mice simultaneously. Intravenously injecting polypeptides to mice from test groups while administering equal quantity of physiological saline to mice from the negative control group. The total medication period was 14 days. Avastin was adopted to set up a positive control group; it was administered through the tail vein once every three days while all other drugs were administered through the tail vein once a day. Leaving mice for a one-week rest after 14 days' medication, then (21 days after medication) killing the mice, surgically dissecting the tumors and measuring the weight of tumors. The tumor volume (TV) was calculated in accordance with the following formula: TV=½×a×b^2
(§5) wherein a, b refer to the length and width of the tumor respectively.
(§6) The relative tumor volume (RTV) can be calculated in accordance with the results of measurement, using the formula: RTV=Vt/V0, wherein V0 refers to the initial tumor volume measured on the date starting medication (namely d0) while Vt the tumor volume obtained through every measurement. The anti-tumor activity was evaluated by relative proliferation rate T/C (%), which was calculated in accordance with the following formula:
(§7) wherein TRTV refers to the RTV of experimental groups; CRTV refers to the RTV of the negative control group.

[8] = system: human breast cancer MDA-MB-231; conditions: mouse, in vivo
Experimental: as §4, §5, §6, §7

[9] = system: human thyroid cancer SW-579; type: in vivo, nude mice; conditions: mouse, in vivo
Experimental: as §2

[10] = system: human ovarian cancer SK-OV-3; type: in vivo, nude mice; conditions: mouse, in vivo
Experimental: as §2

[11] = system: human endometrial cancer HHUA; conditions: mouse, in vivo
Experimental: as §4
(§8) Taxol used in the positive control group was administered once every 3 days through tail vein injection, while drugs of all other groups were administered on daily basis through tail vein injection.

[12] = system: human gallbladder cancer GBC-SD; experiment: heterotransplanted human gallbladder cancer GBC-SD in nude mice; conditions: for final weight: daily, tail vein injection
Experimental: as §4
(§9) Avastin used in the positive control group was administered once every 2 days through tail vein injection, while drugs of all other groups were administered on daily basis through tail vein injection.

[13] = system: human pancreatic cancer SW-1990; experiment: heterotransplanted human pancreatic cancer SW-1990 in nude mice; type: in vivo; conditions: for final weight: daily, tail vein injection
Excerpt: as §1

[14] = system: human cervical cancer HeLa; type: in vivo, nude mice; conditions: mouse, in vivo
Experimental: as §2

[15] = system: human gallbladder cancer GBC-SD; conditions: mouse, in vivo
Experimental: as §4, §9

human colon cancer HT-29 = type: in vivo, nude mice; conditions: mouse, in vivo
Experimental: as §2

human renal cancer A498 = type: in vivo, nude mice; conditions: mouse, in vivo
Experimental: as §2

human lung cancer H460 = conditions: mouse, in vivo
Experimental: as §4, §8

[16] = system: human gastric cancer MGC-803; conditions: mouse, in vivo
Excerpt: as §3

[17] = system: human rectal cancer Colo 320; conditions: mouse, in vivo
Experimental: as §4, §8

melanoma B16F10 = experiment: transplanted melanoma B16F10 in C57BL/6 black mice; conditions: mouse, in vivo
Experimental: Hypodermically injecting polypeptides and other drugs into the left axillary region of mice from the experimental groups respectively while administering only equal quantity of physiological saline to the mice from the negative control group. The total medication period was 14 days, during which cyclophosphamide was administered once every other day, taxol once every three days, low-dose polypeptide twice a day and all other drugs once a day.

[18] = system: human laryngeal cancer Hep-2; experiment: heterotransplanted human laryngeal cancer Hep-2 in nude mice; type: in vivo
Excerpt: as §1

human brain tumor SF763 = conditions: mouse, in vivo
Experimental: as §4, §8

[19] = system: human liver cancer SMMC-7721; conditions: mouse, in vivo
Experimental: as §4, §8

[20] = in contrast with the negative control group

FQPVLHLVALNSPLSGGMRGIRGADFQCFQQARAVGLAGTFRA [polypeptide I]
body weight of animals, in words [1]: no significant change in body weight | toxic and side effects, in words [1]: no obvious toxic and side effects | final weight ([2]; 0.75 mg/kg/time): 23.17 ± 0.58 g | final weight ([2]; 1.5 mg/kg/time): 22.88 ± 0.66 g | final weight ([2]; 3 mg/kg/time): 23.14 ± 0.54 g | body weight of animals, in words [2, 20]: no significant change in body weight | toxic and side effects, in words ([2]; mouse, in vivo): no obvious toxic and side effects | body weight of animals, in words [3]: no significant change in body weight | toxic and side effects, in words [4]: no obvious toxic and side effects | body weight of animals, in words [5]: no significant change in body weight | toxic and side effects, in words [5]: no obvious toxic and side effects | body weight of animals, in words (sarcoma HT-1080): no significant change in body weight | toxic and side effects, in words (sarcoma HT-1080): no obvious toxic and side effects | final weight (sarcoma HT-1080; 0.75 mg/kg): 22.99 ± 0.51 g | final weight (sarcoma HT-1080; 1.5 mg/kg): 23.10 ± 0.64 g | final weight (sarcoma HT-1080; 3 mg/kg): 23.13 ± 0.38 g | final weight ([6]; 0.75 mg/kg/time): 22.98 ± 0.60 g | final weight ([6]; 1.5 mg/kg/time): 22.66 ± 0.61 g | final weight ([6]; 3 mg/kg/time): 23.23 ± 0.67 g | body weight of animals, in words [6, 20]: no significant change in body weight | final weight ([7]; 0.75 mg/kg/time): 22.28 ± 1.75 g | final weight ([7]; 1.5 mg/kg/time): 20.21 ± 1.97 g | final weight ([7]; 3 mg/kg/time): 19.34 ± 1.13 g | body weight of animals, in words [7, 20]: no significant change in body weight | toxic and side effects, in words [8]: no obvious toxic and side effects | body weight of animals, in words [9]: no significant change in body weight | toxic and side effects, in words [9]: no obvious toxic and side effects | body weight of animals, in words [10]: no significant change in body weight | toxic and side effects, in words [10]: no obvious toxic and side effects | final weight ([10]; 0.75 mg/kg): 23.09 ± 0.59 g | final weight ([10]; 1.5 mg/kg): 22.96 ± 0.59 g | final weight ([10]; 3 mg/kg): 23.16 ± 0.51 g | body weight of animals, in words [11]: no significant change in body weight | toxic and side effects, in words [11]: no obvious toxic and side effects | final weight ([12]; 0.75 mg/kg/time): 22.95 ± 0.46 g | final weight ([12]; 1.5 mg/kg/time): 23.04 ± 0.55 g | final weight ([12]; 3 mg/kg/time): 22.89 ± 0.51 g | body weight of animals, in words [12, 20]: no significant change in body weight | final weight ([13]; 0.75 mg/kg/time): 23.06 ± 0.64 g | final weight ([13]; 1.5 mg/kg/time): 23.03 ± 0.65 g | final weight ([13]; 3 mg/kg/time): 22.86 ± 0.65 g | body weight of animals, in words [13, 20]: no significant change in body weight | toxic and side effects, in words ([13]; mouse, in vivo): no obvious toxic and side effects | body weight of animals, in words [14]: no significant change in body weight | toxic and side effects, in words [14]: no obvious toxic and side effects | toxic and side effects, in words [15]: no obvious toxic and side effects | body weight of animals, in words (human colon cancer HT-29): no significant change in body weight | toxic and side effects, in words (human colon cancer HT-29): no obvious toxic and side effects | body weight of animals, in words (human renal cancer A498): no significant change in body weight | toxic and side effects, in words (human renal cancer A498): no obvious toxic and side effects | body weight of animals, in words (human lung cancer H460): no significant change in body weight | toxic and side effects, in words (human lung cancer H460): no obvious toxic and side effects | toxic and side effects, in words [16]: no obvious toxic and side effects | body weight of animals, in words [17]: no significant change in body weight | toxic and side effects, in words [17]: no obvious toxic and side effects | final weight ([17]; 0.75 mg/kg): 23.11 ± 0.61 g | final weight ([17]; 1.5 mg/kg): 22.87 ± 0.57 g | final weight ([17]; 3 mg/kg): 20.99 ± 0.66 g | body weight of animals, in words (melanoma B16F10): no significant change | toxic and side effects, in words (melanoma B16F10): no significant toxic and side effects | final weight ([18]; body weight of nude mice, 0.75 mg/kg/time, daily, tail vein injection): 22.88 ± 0.63 g | final weight ([18]; body weight of nude mice, 1.5 mg/kg/time, daily, tail vein injection): 23.21 ± 0.62 g | final weight ([18]; body weight of nude mice, 3 mg/kg/time, daily, tail vein injection): 22.99 ± 0.62 g | body weight of animals, in words [18, 20]: no significant change in body weight | toxic and side effects, in words ([18]; mouse, in vivo): no obvious toxic and side effects | body weight of animals, in words (human brain tumor SF763): no significant change in body weight | toxic and side effects, in words (human brain tumor SF763): no obvious toxic and side effects | final weight (human brain tumor SF763; 0.75 mg/kg): 22.90 ± 0.69 g | final weight (human brain tumor SF763; 1.5 mg/kg): 22.99 ± 0.62 g | final weight (human brain tumor SF763; 3 mg/kg): 20.94 ± 0.47 g | body weight of animals, in words [19]: no significant change in body weight | toxic and side effects, in words [19]: no obvious toxic and side effects

RGDGGGGFQPVLHLVALNSPLSGGMRGIRGADFQCFQQARAVGLAGTFRA [polypeptide II]
body weight of animals, in words [1]: no significant change in body weight | toxic and side effects, in words [1]: no obvious toxic and side effects | body weight of animals, in words ([2]; mouse, in vivo): no significant change in body weight | toxic and side effects, in words ([2]; mouse, in vivo): no obvious toxic and side effects | body weight of animals, in words [3]: no significant change in body weight | toxic and side effects, in words [4]: no obvious toxic and side effects | body weight of animals, in words [5]: no significant change in body weight | toxic and side effects, in words [5]: no obvious toxic and side effects | body weight of animals, in words (sarcoma HT-1080): no significant change in body weight | toxic and side effects, in words (sarcoma HT-1080): no obvious toxic and side effects | final weight (sarcoma HT-1080; 0.75 mg/kg): 22.93 ± 0.46 g | final weight (sarcoma HT-1080; 1.5 mg/kg): 22.95 ± 0.46 g | final weight (sarcoma HT-1080; 3 mg/kg): 23.04 ± 0.55 g | body weight of animals, in words [8]: no significant change in body weight | toxic and side effects, in words [8]: no obvious toxic and side effects | body weight of animals, in words [9]: no significant change in body weight | toxic and side effects, in words [9]: no obvious toxic and side effects | body weight of animals, in words [10]: no significant change in body weight | toxic and side effects, in words [10]: no obvious toxic and side effects | final weight ([10]; 0.75 mg/kg): 23.07 ± 0.50 g | final weight ([10]; 1.5 mg/kg): 23.32 ± 0.50 g | final weight ([10]; 3 mg/kg): 22.97 ± 0.65 g | body weight of animals, in words [11]: no significant change in body weight | toxic and side effects, in words [11]: no obvious toxic and side effects | body weight of animals, in words ([13]; mouse, in vivo): no significant change in body weight | toxic and side effects, in words ([13]; mouse, in vivo): no obvious toxic and side effects | body weight of animals, in words [14]: no significant change in body weight | toxic and side effects, in words [14]: no obvious toxic and side effects | body weight of animals, in words [15]: no significant change in body weight | toxic and side effects, in words [15]: no obvious toxic and side effects | body weight of animals, in words (human colon cancer HT-29): no significant change in body weight | toxic and side effects, in words (human colon cancer HT-29): no obvious toxic and side effects | body weight of animals, in words (human renal cancer A498): no significant change in body weight | toxic and side effects, in words (human renal cancer A498): no obvious toxic and side effects | body weight of animals, in words (human lung cancer H460): no significant change in body weight | toxic and side effects, in words (human lung cancer H460): no obvious toxic and side effects | body weight of animals, in words [16]: no significant change in body weight | toxic and side effects, in words [16]: no obvious toxic and side effects | body weight of animals, in words [17]: no significant change in body weight | toxic and side effects, in words [17]: no obvious toxic and side effects | final weight ([17]; 0.75 mg/kg): 22.85 ± 0.61 g | final weight ([17]; 1.5 mg/kg): 23.10 ± 0.61 g | final weight ([17]; 3 mg/kg): 22.99 ± 0.37 g | body weight of animals, in words (melanoma B16F10): no significant change in body weight | toxic and side effects, in words (melanoma B16F10): no obvious toxic and side effects | body weight of animals, in words ([18]; mouse, in vivo): no significant change in body weight | toxic and side effects, in words ([18]; mouse, in vivo): no obvious toxic and side effects | final weight ([18]; mouse, in vivo, 0.75 mg/kg): 22.88 ± 0.70 g | final weight ([18]; mouse, in vivo, 1.5 mg/kg): 22.98 ± 0.60 g | final weight ([18]; mouse, in vivo, 3 mg/kg): 22.66 ± 0.61 g | body weight of animals, in words (human brain tumor SF763): no significant change in body weight | toxic and side effects, in words (human brain tumor SF763): no obvious toxic and side effects | final weight (human brain tumor SF763; 0.75 mg/kg): 22.95 ± 0.52 g | final weight (human brain tumor SF763; 1.5 mg/kg): 22.88 ± 0.52 g | final weight (human brain tumor SF763; 3 mg/kg): 23.24 ± 0.66 g | body weight of animals, in words [19]: no significant change in body weight | toxic and side effects, in words [19]: no obvious toxic and side effects
